Our source for the IC50 values is patent US8592455B2 (priority 2008, dated 2013).

In assay [1] the target is Pim1 kinase (Homo sapiens (Human), UniProt P11309). The note with it: read-out: Pim1 IC50.
Assay [2] concerns the target Pim3 kinase (Homo sapiens (Human), UniProt Q86V86). The note with it: read-out: Pim3 IC50.

Sequence of Pim1 kinase (P11309 whole entry): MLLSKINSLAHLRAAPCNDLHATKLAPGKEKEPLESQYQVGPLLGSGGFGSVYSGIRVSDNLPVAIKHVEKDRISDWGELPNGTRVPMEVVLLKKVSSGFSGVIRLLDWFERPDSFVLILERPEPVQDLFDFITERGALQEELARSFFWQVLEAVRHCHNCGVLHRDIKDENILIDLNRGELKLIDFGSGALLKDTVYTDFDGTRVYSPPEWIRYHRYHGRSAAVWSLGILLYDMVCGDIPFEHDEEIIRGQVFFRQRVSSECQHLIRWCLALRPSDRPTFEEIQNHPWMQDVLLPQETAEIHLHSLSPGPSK

The term IC50 denotes the concentration that inhibits the measured activity by half. As for `Cc1ccc(F)c(-c2nc(C(=O)Nc3cnccc3[C@H]3C[C@@H](N)CC(C)(C)C3)ccc2F)c1F` [Example 11, N-(4-((1R,5R)-5-amino-3,3-dimethylcyclohexyl)pyridin-3-yl)-6-(2,6-difluoro-3-methylphenyl)-5-fluoropicolinamide], the IC50 in assay [1] worked out at 1 nM; in assay [2], 4 nM.
Turning to `Cc1ccc(F)c(-c2cccc(C(=O)Nc3cnccc3N3C[C@@H](N)[C@H](O)[C@@H](C)C3)n2)c1F` [Example 13, N-(4-((3R,4R,5S)-3-amino-4-hydroxy-5-methylpiperidin-1-yl)pyridin-3-yl)-6-(2,6-difluoro-3-methylphenyl)picolinamide], the IC50 in assay [1] was determined as 1 nM; in assay [2], 3 nM.
With `N[C@H]1CCC[C@@H](c2ccncc2NC(=O)c2ccc(F)c(-c3cc(F)cc(F)c3F)n2)C1` [Example 14, N-(4-((1R,3S)-3-aminocyclohexyl)pyridin-3-yl)-5-fluoro-6-(2,3,5-trifluorophenyl)picolinamide], the figures for the IC50 in assay [1] and in assay [2] were 6 nM and 12 nM, respectively.
The matching figures for `CCc1ccc(F)c(-c2cccc(C(=O)Nc3cnccc3[C@H]3C[C@@H](N)[C@H](O)[C@@H](C)C3)n2)c1F` [Example 15, N-(4-((1R,3R,4R,5S)-3-amino-4-hydroxy-5-methylcyclohexyl)pyridin-3-yl)-6-(3-ethyl-2,6-difluorophenyl)picolinamide]: 3 nM and 6 nM.
The matching figures for `CCc1ccc(F)c(-c2cccc(C(=O)Nc3cnccc3[C@H]3C[C@@H](N)[C@@H](O)[C@@H](C)C3)n2)c1F` [Example 17, N-(4-((1R,3R,4S,5S)-3-amino-4-hydroxy-5-methylcyclohexyl)pyridin-3-yl)-6-(3-ethyl-2,6-difluorophenyl)picolinamide]: 1 nM and 5 nM.
On the same counts, the results for `CCc1ccc(F)c(-c2cccc(C(=O)Nc3cnccc3[C@@H]3CCC[C@H](N)C3)n2)c1F` [Example 19, N-(4-((1R,3S)-3-aminocyclohexyl)pyridin-3-yl)-6-(3-ethyl-2,6-difluorophenyl)picolinamide] are 3 nM and 7 nM.
For the compound `Cc1ccc(F)c(-c2nc(C(=O)Nc3cnccc3[C@@H]3CCC[C@H](N)C3)ccc2F)c1F` [Example 20, N-(4-((1R,3S)-3-aminocyclohexyl)pyridin-3-yl)-6-(2,6-difluoro-3-methylphenyl)-5-fluoropicolinamide], the IC50 in assay [1] came to 1 nM; in assay [2] it was 3 nM.
On the same counts, the results for `CCc1ccc(F)c(-c2cccc(C(=O)Nc3cnccc3[C@@H]3C[C@H](C)C[C@H](N)C3)n2)c1F` [Example 21, N-(4-((1R,3S,5S)-3-amino-5-methylcyclohexyl)pyridin-3-yl)-6-(3-ethyl-2,6-difluorophenyl)picolinamide] are 2 nM and 6 nM.
The matching figures for `Cc1ccc(F)c(-c2nc(C(=O)Nc3cnccc3N3C[C@@H](N)[C@H](O)[C@@H](C)C3)ccc2F)c1F` [Example 22, N-(4-((3R,4R,5S)-3-amino-4-hydroxy-5-methylpiperidin-1-yl)pyridin-3-yl)-6-(2,6-difluoro-3-methylphenyl)-5-fluoropicolinamide]: 1 nM and 3 nM.
The matching figures for `C[C@H]1CN(c2ccncc2NC(=O)c2cccc(-c3ccccc3F)n2)C[C@@H](N)[C@@H]1O` [Example 23, N-(4-((3R,4R,5S)-3-amino-4-hydroxy-5-methylpiperidin-1-yl)pyridin-3-yl)-6-(2-fluorophenyl)picolinamide]: 2 nM and 3 nM.
Turning to `C[C@H]1CN(c2ccncc2NC(=O)c2nc(-c3c(F)cccc3F)ccc2F)C[C@@H](N)[C@@H]1O` [Example 24, N-(4-((3R,4R,5S)-3-amino-4-hydroxy-5-methylpiperidin-1-yl)pyridin-3-yl)-6-(2,6-difluorophenyl)-3-fluoropicolinamide], the IC50 in assay [1] and in assay [2] was 1 nM in each case.
Consider `Cc1ccc(F)c(-c2nc(C(=O)Nc3cnccc3[C@@H]3C[C@H](C)C[C@H](N)C3)ccc2F)c1F` [Example 27, N-(4-((1R,3S,5S)-3-amino-5-methylcyclohexyl)pyridin-3-yl)-6-(2,6-difluoro-3-methylphenyl)-5-fluoropicolinamide], for which the IC50 in assay [1] came out at 1 nM; in assay [2], 2 nM.
Consider `Cc1ccc(F)c(-c2cccc(C(=O)Nc3cnccc3[C@@H]3CCC[C@H](N)C3)n2)c1F` [Example 28, N-(4-((1R,3S)-3-aminocyclohexyl)pyridin-3-yl)-6-(2,6-difluoro-3-methylphenyl)picolinamide], for which the IC50 came to 1 nM in assay [1] and 2 nM in assay [2].
On the same counts, the results for `Cc1ccc(F)c(-c2cccc(C(=O)Nc3cnccc3[C@H]3C[C@@H](N)[C@H](O)[C@@H](C)C3)n2)c1F` [Example 30, N-(4-((1R,3R,4R,5S)-3-amino-4-hydroxy-5-methylcyclohexyl)pyridin-3-yl)-6-(2,6-difluoro-3-methylphenyl)picolinamide] are 2 nM and 4 nM.
The matching figures for `Cc1ccc(F)c(-c2cccc(C(=O)Nc3cnccc3[C@H]3C[C@@H](N)[C@@H](O)[C@@H](C)C3)n2)c1F` [Example 31, N-(4-((1R,3R,4S,5S)-3-amino-4-hydroxy-5-methylcyclohexyl)pyridin-3-yl)-6-(2,6-difluoro-3-methylphenyl)picolinamide]: 2 nM and 4 nM.
Consider `N[C@H]1CCC[C@@H](c2ccncc2NC(=O)c2ccc(F)c(-c3c(F)cc(O)cc3F)n2)C1` [Example 32, N-(4-((1R,3S)-3-aminocyclohexyl)pyridin-3-yl)-6-(2,6-difluoro-4-hydroxyphenyl)-5-fluoropicolinamide], for which the results for the IC50 in assay [1] and in assay [2] were 1 nM and 3 nM, respectively.
On the same counts, the results for `N[C@H]1CCC[C@@H](c2ccncc2NC(=O)c2ccc(F)c(-c3cc(O)ccc3F)n2)C1` [Example 33, N-(4-((1R,3S)-3-aminocyclohexyl)pyridin-3-yl)-5-fluoro-6-(2-fluoro-5-hydroxyphenyl)picolinamide] are 1 nM and 3 nM.
On the same counts, the results for `N[C@H]1CCC[C@@H](c2ccncc2NC(=O)c2nc(-c3cc(O)ccc3F)ccc2F)C1` [Example 34, N-(4-((1R,3S)-3-aminocyclohexyl)pyridin-3-yl)-3-fluoro-6-(2-fluoro-5-hydroxyphenyl)picolinamide] are 4 nM and 6 nM.
Consider `C[C@@H]1C[C@H](N)C[C@H](c2ccncc2NC(=O)c2cccc(-c3cc(O)ccc3F)n2)C1` [Example 35, N-(4-((1R,3S,5S)-3-amino-5-methylcyclohexyl)pyridin-3-yl)-6-(2-fluoro-5-hydroxyphenyl)picolinamide], for which the IC50 in assay [1] was determined as 1 nM; in assay [2], 3 nM.
On the same counts, the results for `C[C@@H]1C[C@H](N)C[C@H](c2ccncc2NC(=O)c2cccc(-c3ccc(O)cc3F)n2)C1` [Example 37, N-(4-((1R,3S,5S)-3-amino-5-methylcyclohexyl)pyridin-3-yl)-6-(2-fluoro-4-hydroxyphenyl)picolinamide] are 2 nM and 5 nM.
The matching figures for `C[C@@H]1C[C@H](N)C[C@H](c2ccncc2NC(=O)c2ccc(F)c(-c3ccc(O)cc3F)n2)C1` [Example 38, N-(4-((1R,3S,5S)-3-amino-5-methylcyclohexyl)pyridin-3-yl)-5-fluoro-6-(2-fluoro-4-hydroxyphenyl)picolinamide]: 1 nM and 3 nM.
The matching figures for `C[C@@H]1C[C@H](N)C[C@H](c2ccncc2NC(=O)c2nc(-c3ccc(O)cc3F)ccc2F)C1` [Example 39, N-(4-((1R,3S,5S)-3-amino-5-methylcyclohexyl)pyridin-3-yl)-3-fluoro-6-(2-fluoro-4-hydroxyphenyl)picolinamide]: 7 nM and 12 nM.
Consider `C[C@@H]1C[C@H](N)C[C@H](c2ccncc2NC(=O)c2nc(-c3cc(O)ccc3F)ccc2F)C1` [Example 43, N-(4-((1R,3S,5S)-3-amino-5-methylcyclohexyl)pyridin-3-yl)-3-fluoro-6-(2-fluoro-5-hydroxyphenyl)picolinamide], for which the IC50 in assay [1] turned out to be 1 nM; in assay [2], 2 nM.
The matching figures for `COc1ccc(F)c(-c2nc(C(=O)Nc3cnccc3[C@H]3C[C@@H](N)[C@H](O)[C@@H](C)C3)ccc2F)c1F` [Example 47, N-(4-((1R,3R,4R,5S)-3-amino-4-hydroxy-5-methylcyclohexyl)pyridin-3-yl)-6-(2,6-difluoro-3-methoxyphenyl)-5-fluoropicolinamide]: 1 nM and 3 nM.
The matching figures for `CC1(C)C[C@H](N)C[C@H](c2ccncc2NC(=O)c2ccc(F)c(-c3c(F)cccc3F)n2)C1` [Example 49, N-(4-((1R,5R)-5-amino-3,3-dimethylcyclohexyl)pyridin-3-yl)-6-(2,6-difluorophenyl)-5-fluoropicolinamide]: 1 nM and 2 nM.
The matching figures for `C[C@@H]1C[C@H](N)C[C@H](c2ccncc2NC(=O)c2nc(-c3c(F)cccc3F)c(F)cc2N)C1` [Example 51, 3-amino-N-(4-((1R,3S,5S)-3-amino-5-methylcyclohexyl)pyridin-3-yl)-6-(2,6-difluorophenyl)-5-fluoropicolinamide]: 1 nM and 1 nM.
As for `N[C@H]1CCC[C@@H](c2ccncc2NC(=O)c2ccc(F)c([C@H]3CC[C@@H](O)CC3)n2)C1` [Example 53, N-(4-((1R,3S)-3-aminocyclohexyl)pyridin-3-yl)-5-fluoro-6-((1s,4s)-4-hydroxycyclohexyl)picolinamide], the IC50 was 10 nM in assay [1] and 65 nM in assay [2].
The matching figures for `N[C@H]1CCC[C@@H](c2ccncc2NC(=O)c2ccc(F)c([C@H]3CC[C@H](O)CC3)n2)C1` [Example 56, N-(4-((1R,3S)-3-aminocyclohexyl)pyridin-3-yl)-5-fluoro-6-((1r,4r)-4-hydroxycyclohexyl)picolinamide]: 11 nM and 102 nM.
